These results are taken from ChEMBL document CHEMBL1134929, “Synthesis and biological activity of potent heterocyclic thiol-based inhibitors of endothelin-converting enzyme-1” (Bioorg Med Chem Lett, 2002).

As usually defined, the inhibition in vivo is the percentage by which the read-out fell short of the control. A higher inhibition in vivo goes with strong suppression. For orientation: Inhibition means how much of the control response was suppressed. High values mean a strong effect, low ones a weak effect. In general, IC50 refers to the concentration that gives 50% inhibition. Higher therefore signals lower potency.

For assay [1], the system named is Rattus norvegicus. Briefly: Compound was evaluated for its ability to inhibit the Endothelin 1 induced pressor response in anesthetized rats upon oral administration of 3 mg/kg at 0.5 hr post dosing. It counts as functional.
Assay [2] deals with Rattus norvegicus. Briefly: Compound was evaluated for its ability to inhibit the Endothelin 1 induced pressor response in anesthetized rats iupon oral administration of 3 mg/kg at 4 hr post dosing. It counts as functional.
For assay [3], the system named is Rattus norvegicus. Nature of the assay: Compound was evaluated for its ability to inhibit the Endothelin 1 induced pressor response in rats upon oral administration of 3-30 mg/kg at 2 hr post dosing. It counts as functional.
In assay [4] the test system is Rattus norvegicus. Nature of the assay: Compound was evaluated for its ability to inhibit the Endothelin 1 induced pressor response in anesthetized rats upon oral administration of 3 mg/kg at 2 hr post dosing. It counts as functional.
In assay [5] the test system is Rattus norvegicus. Nature of the assay: Compound was evaluated for its ability to inhibit the Endothelin 1 induced pressor response in anesthetized rats upon oral administration of 3 mg/kg at 8 hr post dosing. It counts as functional.
Assay [6] deals with T1, Endothelin-converting enzyme 1 (Homo sapiens, UniProt P42892).
T1 sequence (P42892 whole entry): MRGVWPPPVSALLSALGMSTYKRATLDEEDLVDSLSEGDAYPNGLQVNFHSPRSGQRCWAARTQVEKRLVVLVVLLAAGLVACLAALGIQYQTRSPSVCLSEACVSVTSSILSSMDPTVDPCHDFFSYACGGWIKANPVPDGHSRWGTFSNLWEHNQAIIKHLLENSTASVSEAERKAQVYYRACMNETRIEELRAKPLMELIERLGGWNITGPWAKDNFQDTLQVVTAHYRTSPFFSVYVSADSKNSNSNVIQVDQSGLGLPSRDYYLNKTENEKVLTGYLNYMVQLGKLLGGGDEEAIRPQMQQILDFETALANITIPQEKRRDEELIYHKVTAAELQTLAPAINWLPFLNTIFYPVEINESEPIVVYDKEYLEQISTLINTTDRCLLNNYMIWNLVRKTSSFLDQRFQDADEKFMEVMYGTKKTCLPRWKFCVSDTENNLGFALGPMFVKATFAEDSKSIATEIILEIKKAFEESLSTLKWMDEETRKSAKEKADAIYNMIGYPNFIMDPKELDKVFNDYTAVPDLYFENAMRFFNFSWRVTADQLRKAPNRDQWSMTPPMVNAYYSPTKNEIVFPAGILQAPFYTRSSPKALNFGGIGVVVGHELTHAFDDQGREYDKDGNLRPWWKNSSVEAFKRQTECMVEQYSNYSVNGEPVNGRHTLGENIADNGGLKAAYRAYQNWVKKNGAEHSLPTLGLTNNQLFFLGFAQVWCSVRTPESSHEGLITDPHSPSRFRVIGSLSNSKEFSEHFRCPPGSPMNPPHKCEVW
Briefly: In vitro inhibition of Endothelin-converting enzyme 1.

For assay [7], the system named is Rattus norvegicus. Nature of the assay: Compound was evaluated for its ability to inhibit Endothelin 1 induced increase in mean arterial pressure (MAP) after 15 min of dosing (20 mg/kg) in rats. It counts as functional, Artery.
Assay [8] concerns Rattus norvegicus. Nature of the assay: Compound was evaluated for its ability to inhibit the Endothelin 1 induced pressor response in anesthetized rats intravenous administration of 10 mg/kg. It counts as functional.

As to `COC(=O)[C@H](Cc1ccc(-c2cccs2)nc1)NC(=O)C1(NC(=O)[C@H](CC(C)C)SC(C)=O)CCCC1`, the inhibition in vivo at 3 mg/kg was found to be 90% in the assay on Rattus norvegicus [1], 70% with Rattus norvegicus [2], 82% with Rattus norvegicus [4] and 34% in the assay with Rattus norvegicus [5]. The same compound yielded an Inhibition in the assay on Rattus norvegicus [3] of 65%.

Consider `CC(C)[C@H](S)C(=O)NC1(C(=O)NC(Cc2ccc(-c3cccc(N)c3)nc2)C(=O)O)CCCC1` (stereo partly specified), for which the IC50 in assay [6] came out at 64 nM.

On to `CC(C)C[C@H](S)C(=O)NC1(C(=O)N[C@@H](Cc2ccc(-c3cccs3)nc2)C(=O)O)CCCC1`, for which the “Increase in MAP” value in the assay with Rattus norvegicus [7] is recorded as 77%. In addition, half-maximal inhibition in assay [6] (IC50) required 9.5 nM. In addition, the inhibition in vivo at 10 mg/kg in the assay on Rattus norvegicus [8] turned out to be 61%.

Take `CC(C)[C@H](S)C(=O)NC1(C(=O)N[C@@H](Cc2ccc(-c3ccccc3)cc2)C(=O)O)CCCC1`: the inhibition in vivo at 10 mg/kg in the assay on Rattus norvegicus [8] was 40%.

As for `CC(C)[C@H](S)C(=O)NC1(C(=O)NC(Cc2ccc(-c3ccoc3)nc2)C(=O)O)CCCC1` (stereo partly specified), the 50% inhibitory concentration (IC50) in assay [6] turned out to be 39 nM.
